Measurements taken from ChEMBL document CHEMBL3988442, “University of Dundee, Small-Polar-MMV Screening Library” (2021).

Tested on: Schistosoma mansoni
Experiment: High throughput screening of compounds against Schistosoma mansoni motility
Format: functional
Parameters: dose or concentration left out as unconfirmed

| Structure (SMILES) | Percent Effect |
| --- | --- |
| O=C1NCCCCC1Sc1nnc(C2CC2)n1C1CC1 (stereo unspecified) | -44.06% |
| COCCNC(=O)Cn1nc(C(C)C)c2cnn(C(C)(C)C)c2c1=O | -20.39% |
| O=C(c1cn(-c2cc(N3CCOCC3)ncn2)cn1)N1CCSCC1 | -64.76% |
| O=C(c1cn(-c2cc(N3CCSCC3)ncn2)cn1)N1CCSCC1 | -48.35% |
| Cc1ccc(N2CCN(C(=O)COc3ccccc3)CC2)nn1 | -51.88% |
| O=S(=O)(c1cccnc1)N1CCN(CCn2ccnc2)CC1 | -24.98% |
| Cc1cccc(CS(=O)(=O)NCC(O)Cc2ccccc2)c1 (stereo unspecified) | 8.547% |
| COc1cccc(S(=O)(=O)NC2CNC(=O)C2)c1 (stereo unspecified) | -3.901% |
| O=C1CCSCC(C(=O)N2CCCC2)N1 (stereo unspecified) | -27.13% |
| O=C(NCc1ccoc1)Nc1ccc(CN2CCOC2=O)cc1 | -8.505% |
| NC(=O)CN1CCCN(C(=O)c2ccn(-c3ccccc3)n2)CC1 | -17.53% |
| COCCN(Cc1ccc(F)cc1Cl)C(=O)c1cccc[n+]1[O-] | -17.57% |
| COc1cc(C)nc(N2CCN(Cc3nccn3C)CC2)n1 | -41.68% |
| O=C(CSc1ccc2c(c1)OCCO2)NS(=O)(=O)C1CCCCC1 | 7.796% |
| Cc1occc1C(=O)Nc1ccnc(OC2CCOC2)c1 (stereo unspecified) | -74.39% |
| Cc1n[nH]c(C2CN(CC(=O)NCCc3ccsc3)CCO2)n1 (stereo unspecified) | -117.4% |
| CCc1noc(C(C)N(C)CC(=O)Nc2c(C)cccc2C)n1 (stereo unspecified) | -71% |
| COc1ccc(NC(=O)N2CCN(c3ncccn3)CC2)cn1 | -75.2% |
| Cc1ccc(C(=O)NC(CN2CCCC2=O)c2ccccc2)c(=O)[nH]1 (stereo unspecified) | -58.7% |
| Cc1nn(C)c(N(C)C)c1CNCC(O)COc1ccc(F)cc1 (stereo unspecified) | -41.92% |
| Cc1nc(C(C)(C)NC(=O)Nc2cccc(C#N)c2)no1 | -35.79% |
| CCn1nc2c(cc1=O)CN(Cc1nc3ccccc3c(=O)[nH]1)CC2 | -62.65% |
| CSC(C)C(=O)NCCCc1cc(N)n(-c2ccccc2)n1 (stereo unspecified) | -59.95% |
| Cc1ccn(-c2ccccc2NCc2ccccn2)n1 | -12.81% |

| Structure (SMILES) | Percent Effect |
| --- | --- |
| Cc1ccc(F)c(C(=O)N2CCN(S(C)(=O)=O)[C@@H](C)C2)c1 | -35.69% |
| CC(C)c1nnc2n1CC(CNCc1ccncc1)CC2 (stereo unspecified) | -34.29% |
| COCCN1C(=O)CC(N2CCN(c3ccc(OC)cc3)CC2)C1=O (stereo unspecified) | -42.76% |
| O=C(Nc1cccc(CN2CCOC2=O)c1)N1CCOCC1 | 11.29% |
| Cc1nn(C)c(N2CCOCC2)c1CNC(C)c1cccnc1 (stereo unspecified) | -13.95% |
| CC(C)(C(=O)NCC1CC1)c1ccccc1F | 9.48% |
| Cc1cc(C)n(Cc2ccc(C(=O)NCCN3CCOCC3)cc2)n1 | -9.196% |
| O=C(CCc1cscn1)NS(=O)(=O)c1ccc2c(c1)CCC2 | 28.79% |
| CCC(CC)c1cc(C(=O)N2CCCC(n3cncn3)C2)on1 (stereo unspecified) | 1.073% |
| CC(C)c1nc(CN(C)C2CCN(Cc3nc(C4CC4)no3)C2)no1 (stereo unspecified) | -10.87% |
| COCc1ccccc1C(=O)NCCCN1CCCC1C(=O)N(C)C (stereo unspecified) | -41.89% |
| CS(=O)(=O)Cc1cccc(C(=O)NCC2Cc3ccccc3O2)c1 (stereo unspecified) | -78.27% |
| O=C(NCCCn1nc2ccccn2c1=O)NC1CCC(O)CC1 (stereo unspecified) | -74.25% |
| CC(C)(C)NC(=O)C1CSCN1S(=O)(=O)c1cccc(F)c1 (stereo unspecified) | -27.85% |
| Cc1cccc(CNCc2c(C)nn(C)c2N2CCOCC2)n1 | -105.3% |
| O=C(CCc1nccs1)N1CCC(N2CCNC2=O)CC1 | -51.15% |
| Cc1csc(N2CCN(Cc3cnc(C)s3)CC2C)n1 (stereo unspecified) | -30.28% |
| O=C(Cc1cccs1)NC1CCN(c2cccc(F)c2)CC1 | -37.43% |
| COc1ccc(NC(C)C(=O)NCCc2cccs2)cc1F (stereo unspecified) | -15.23% |
| OCC1CCCN1c1cc(NCCNc2ccccn2)ncn1 (stereo unspecified) | -56.18% |
| Cc1cn(-c2ccccc2)nc1NS(=O)(=O)c1cc(C(=O)O)cs1 | -15.39% |
| Cc1cn(-c2ccccc2)nc1NS(=O)(=O)c1cccc(C(=O)O)c1 | -30.44% |
| CC1CN(C)c2ccccc2CN1C(=O)c1ccc[nH]1 (stereo unspecified) | -38.54% |
| CC(C1CC1)N(C(=O)NCCCn1nc2ccccn2c1=O)C1CC1 (stereo unspecified) | -46.88% |

| Structure (SMILES) | Percent Effect |
| --- | --- |
| CC(C)c1nc(CN(C)C2CCN(CC(F)(F)F)C2)no1 (stereo unspecified) | -30.86% |
| CCN1CCCC1CN(CCN(C)C)S(=O)(=O)c1ccc(C#N)cc1 (stereo unspecified) | 8.845% |
| CCn1nc(CC(C)C)cc1C(=O)NCCCOC | -69.66% |
| O=C(c1ccccn1)N1CCCC(c2nccn2CC2CCC2)C1 (stereo unspecified) | -9.087% |
| CC(CN1CCOCC1)NCc1nncn1C1CCCCC1 (stereo unspecified) | 0.8698% |
| O=C(c1cnc(COc2ccccc2)nc1O)N1CCOCC1 | 1.503% |
| CN1CCCN(C(=O)c2ccc3c(c2)nc(N2CCOCC2)n3C)CC1 | -26.36% |
| CCc1cc(NC2CCN(S(C)(=O)=O)CC2)n2nc(C)c(C)c2n1 | -49.44% |
| CN(C)C(=O)c1ccc2c(c1)N(C)C(CC(=O)NCc1ccno1)CO2 (stereo unspecified) | 0.8383% |
| O=C(c1cccc(S(=O)(=O)NCCCc2ccco2)c1)N1CCOCC1 | -44.89% |
| Cc1ccc(C(=O)N2CCC3(CCC(=O)N(CC(N)=O)C3)CC2)c(O)c1 | -13.5% |
| CCC1c2cccn2CCN1C(=O)c1ccc2nonc2c1 (stereo unspecified) | -19.69% |
| CCn1nc(C(C)C)cc1C(=O)NCCCOC | -51.54% |
| CCOCCNc1nc(C2CCCC2)nc2c1cnn2C | -80.64% |
| COc1nc2c(cc1C(=O)N1C[C@H](N)C[C@H]1C(=O)NC(C)C)CCC2 | 37.99% |
| OCCC1CN(C2CCC2)CCN1C1CCCC1 (stereo unspecified) | -52.06% |
| CC(Cn1cncn1)NCc1nncn1C1CCCCC1 (stereo unspecified) | 4.936% |
| Cc1cc(N(C)Cc2noc(C)n2)n2nc(C)c(C)c2n1 | -16.19% |
| CCN(CCn1cccn1)Cc1nc(-c2cccs2)oc1C | -16.9% |
| CN1CCC(c2nnc(CN3CCC(O)CC3)n2C)CC1 | -3.365% |
| CNC(=O)c1ccc(OC2CCN(S(C)(=O)=O)CC2)c(Cl)c1 | 40.62% |
| COCCCC1CCCN(C(=O)CCc2cc(O)no2)C1 (stereo unspecified) | 4.573% |
| CN(C)C(=O)N1CCn2nc(CNC(=O)CCC(F)(F)F)cc2C1 | 2% |
